Measured values from patent US9751869B2, “LXR modulators” (BRISTOL-MYERS SQUIBB COMPANY, priority 2013, dated 2017).

Target: T1, LXRβ (Homo sapiens, UniProt P55055)
T1 construct: Co-transfection expression plasmids, comprising full-length LXRα (pCMX-h LXRα or LXRβ (pCMX-hLXRβ)); expressed in transfected cells; host or cells: CV-1 African green monkey kidney cells, transient transfection with pCMX-hLXRβ
T1 sequence (P55055 1-460): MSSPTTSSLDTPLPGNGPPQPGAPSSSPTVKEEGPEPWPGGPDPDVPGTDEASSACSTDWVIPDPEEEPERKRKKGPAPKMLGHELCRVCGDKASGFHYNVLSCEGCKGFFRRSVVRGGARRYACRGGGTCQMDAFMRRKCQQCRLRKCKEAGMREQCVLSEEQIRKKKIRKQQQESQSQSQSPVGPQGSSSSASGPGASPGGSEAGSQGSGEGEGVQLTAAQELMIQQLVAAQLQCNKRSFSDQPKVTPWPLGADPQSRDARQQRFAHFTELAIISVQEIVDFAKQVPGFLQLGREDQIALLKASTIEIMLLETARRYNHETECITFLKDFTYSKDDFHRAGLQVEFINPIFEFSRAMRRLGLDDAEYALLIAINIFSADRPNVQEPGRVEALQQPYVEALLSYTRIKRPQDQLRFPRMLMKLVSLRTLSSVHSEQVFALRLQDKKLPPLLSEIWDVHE
T1 sequence (P19793 1-462 partner): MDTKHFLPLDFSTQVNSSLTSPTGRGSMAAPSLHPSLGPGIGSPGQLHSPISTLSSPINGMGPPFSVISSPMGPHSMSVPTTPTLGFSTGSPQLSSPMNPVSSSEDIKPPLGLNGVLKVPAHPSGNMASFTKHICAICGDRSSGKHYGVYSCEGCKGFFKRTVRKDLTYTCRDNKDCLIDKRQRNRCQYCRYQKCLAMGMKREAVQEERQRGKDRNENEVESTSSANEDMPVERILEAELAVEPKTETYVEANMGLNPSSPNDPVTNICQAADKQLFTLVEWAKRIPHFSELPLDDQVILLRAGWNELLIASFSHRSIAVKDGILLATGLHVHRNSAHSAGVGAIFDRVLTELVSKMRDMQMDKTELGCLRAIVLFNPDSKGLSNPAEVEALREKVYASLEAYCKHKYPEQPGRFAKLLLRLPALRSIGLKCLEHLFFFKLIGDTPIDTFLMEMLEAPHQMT
Experiment: LXR/LXRE co-transfection assay (luciferase reporter) in CV-1 cells, LXRβ
Type: cell-based
Details: for EC50: CV-1 cells transfected with pCMX-hLXRβ and LXREx1-Tk-Luciferase, 20 hours incubation, read-out: LXRbeta agonism EC50; for Emax: CV-1 cells, relative to maximum response of high control N-(3-((4-fluorophenyl)-(naphthalene-2-sulfonyl)amino)propyl)-2,2-dimethylpropionamide, read-out: LXRbeta % EFFICACY
From the text: To measure the ability of compounds to activate or inhibit the transcriptional activity of LXR in a cell based assay, the co-transfection assay was used. It has been shown that LXR functions as a heterodimer with RXR. For the co-transfection assay, expression plasmids for LXRα and LXRβ are introduced separately via transient transfection into mammalian cells along with a luciferase reporter plasmid that contains one copy of a DNA sequence that is bound by LXR-RXR heterodimers (LXRE; Willy, P. et. al. 1995). LXRs heterodimerize with the endogenous RXR. Treatment of transfected cells with an LXR agonist increases the transcriptional activity of LXR, which is measured by an increase in luciferase activity.
Co-transfection expression plasmids, comprising full-length LXRα (pCMX-h LXRα or LXRβ (pCMX-hLXRβ), reporter plasmid (LXREx1-Tk-Luciferase), and control (pCMX-Galactosidase expression vector) (Willey et al. Genes & Development 9 1033-1045 (1995)).
CV-1 cells were prepared 24 hours prior to the experiment by plating them into T-175 flasks or 500 cm^2 dishes in order to achieve 70-80% confluency on the day of the transfection. The number of cells to be transfected was determined by the number of plates to be screened. Each well of a 384 well plate requires 1.5×10^4 cells. DNA Transfection Reagent was prepared by mixing the required plasmid DNAs with a cationic lipid transfection reagent Transit 2020 (Mirus Bio) for CV1 by following the instructions provided with the reagents. Optimal DNA amounts were determined empirically per cell line and size of vessel to be transfected. For each T175 cm^2 flask a total of 44.4 ug for CV1 of DNA, 133 ul Transit2020 and 4.5 ml DMEM for CV1 was mixed and added. Cells were then incubated at least 5 hours at 37° C. to prepare screening cells.
Assay plates were prepared by dispensing 5 μL of compound per well of a 384 well plate to achieve final compound concentration of 10 μM and no more than 0.5% DMSO. Media was removed from the screening cells, the cells trypsinized, harvested cells by centrifugation, counted, and plated at a density of approximately 1.5×10^4 cells in the 384 well assay plate prepared above in a volume of about 95 uL. Assay plates containing both compounds and screening cells (100 μL in total volume) were incubated for 20 hours at 37° C.
After incubation with compounds, media was removed from the cells and luciferase assay reagent (30 μL/well) added. After ˜2 minutes at ambient temperature, the assay plates were read on a luminometer (PE Biosystems Northstar reader with on-board injectors, or Envision (Perkin Elmer) or equivalent).
The LXR/LXRE co-transfection assay can be used to establish the EC50/IC50 values for potency and percent activity or inhibition for efficacy. Efficacy defines the activity of a compound relative to a high control ((N-(3-((4-fluorophenyl)-(naphthalene-2-sulfonyl)amino)propyl)-2,2-dimethylpropionamide)) or a low control (DMSO/vehicle). The dose response curves are generated from a 10 point curve with concentrations differing by ½ LOG units. Each point represents the average of 4 wells of data from a 384 well plate.
The data from this assay is fitted to the following equation, from which the EC50 value may be solved: Y=Bottom+(Top−Bottom)/(1+10^((log EC50-X)*HillSlope)).
The EC50/IC50 is therefore defined as the concentration at which an agonist or antagonist elicits a response that is halfway between the Top (maximum) and Bottom (baseline) values. The EC50/IC50 values represented are the averages of at least 2 and normally 3 independent experiments. The determination of the relative efficacy or % control for an agonist is by comparison to the maximum response achieved by ((N-(3-((4-fluorophenyl)-(naphthalene-2-sulfonyl)-amino)propyl)-2,2-dimethylpropionamide) that is measured individually in each dose response experiment.
Table 1 lists LXRβ EC50 values and % efficacy measurements in the cotransfection assay for examples of this invention.

| Compound | EC50 [nM] | Emax [%] |
| --- | --- | --- |
| Cn1nc(C(F)(F)F)cc1-c1ccc(-c2cccc(S(C)(=O)=O)c2)cc1-n1nncc1-c1ccc(OC(F)(F)F)cc1 [Example 14, 1-{3′-(methylsulfonyl)-4-[1-methyl-3-(trifluoromethyl)-1H-pyrazol-5-yl]biphenyl-3-yl}-5-{4-[(trifluoromethyl)oxy]phenyl}-1H-1,2,3-triazole] | 32 | 99 |
| Cn1nc(C(F)(F)F)cc1-c1ccc(-c2cc(F)c(CO)c(S(C)(=O)=O)c2)cc1-n1nncc1-c1ccc(OC(F)(F)F)cc1 [Example 15, (3-fluoro-4′-(1-methyl-3-(trifluoromethyl)-1H-pyrazol-5-yl)-5-(methylsulfonyl)-3′-(5-(4-(trifluoromethoxy)phenyl)-1H-1,2,3-triazol-1-yl)biphenyl-4-yl)methanol] | 11 | 95 |
| COCC(F)(F)c1cc(-c2ccc(-c3cccc(S(C)(=O)=O)c3)cc2-n2nncc2-c2ccc(OC(F)(F)F)cc2)n(C)n1 [Example 16, 1-[4-{3-[1,1-difluoro-2-(methyloxy)ethyl]-1-methyl-1H-pyrazol-5-yl}-3′-(methylsulfonyl)biphenyl-3-yl]-5-{4-[(trifluoromethyl)oxy]phenyl}-1H-1,2,3-triazole] | 163 | 89 |
| COCC(F)(F)c1cc(-c2ccc(-c3cc(F)c(CO)c(S(C)(=O)=O)c3)cc2-n2nncc2-c2ccc(OC(F)(F)F)cc2)n(C)n1 [Example 17, [4′-{3-[1,1-difluoro-2-(methyloxy)ethyl]-1-methyl-1H-pyrazol-5-yl}-3-fluoro-5-(methylsulfonyl)-3′-(5-{4-[(trifluoromethyl)oxy]phenyl}-1H-1,2,3-triazol-1-yl)biphenyl-4-yl]methanol] | 61 | 96 |
| Cn1nc(C(C)(F)F)cc1-c1ccc(-c2cccc(S(C)(=O)=O)c2)cc1-n1nncc1-c1ccc(OC(F)(F)F)cc1 [Example 18, 1-{4-[3-(1,1-difluoroethyl)-1-methyl-1H-pyrazol-5-yl]-3′-(methylsulfonyl)biphenyl-3-yl}-5-{4-[(trifluoromethyl)oxy]phenyl}-1H-1,2,3-triazole] | 57 | 87 |
| CN(C)S(=O)(=O)c1cccc(-c2ccc(-c3cc(C(C)(F)F)nn3C)c(-n3nncc3-c3ccc(OC(F)(F)F)cc3)c2)c1 [Example 19, 4′-[3-(1,1-difluoroethyl)-1-methyl-1H-pyrazol-5-yl]-N,N-dimethyl-3′-(5-{4-[(trifluoromethyl)oxy]phenyl}-1H-1,2,3-triazol-1-yl)biphenyl-3-sulfonamide] | 91 | 79 |
| CNS(=O)(=O)c1cccc(-c2ccc(-c3cc(C(C)(F)F)nn3C)c(-n3nncc3-c3ccc(OC(F)(F)F)cc3)c2)c1 [Example 20, 4′-[3-(1,1-difluoroethyl)-1-methyl-1H-pyrazol-5-yl]-N-methyl-3′-(5-{4-[(trifluoromethyl)oxy]phenyl}-1H-1,2,3-triazol-1-yl)biphenyl-3-sulfonamide] | 38 | 86 |
| Cn1nc(C(C)(F)F)cc1-c1ccc(-c2cc(F)c(CO)c(S(C)(=O)=O)c2)cc1-n1nncc1-c1ccc(OC(F)(F)F)cc1 [Example 21, {4′-[3-(1,1-difluoroethyl)-1-methyl-1H-pyrazol-5-yl]-3-fluoro-5-(methylsulfonyl)-3′-(5-{4-[(trifluoromethyl)oxy]phenyl}-1H-1,2,3-triazol-1-yl)biphenyl-4-yl}methanol] | 22 | 82 |
| Cn1nc(C(F)F)cc1-c1ccc(-c2cccc(S(C)(=O)=O)c2)cc1-n1nncc1-c1ccc(OC(F)(F)F)cc1 [Example 22, 1-{4-[3-(difluoromethyl)-1-methyl-1H-pyrazol-5-yl]-3′-(methylsulfonyl)biphenyl-3-yl}-5-{4-[(trifluoromethyl)oxy]phenyl}-1H-1,2,3-triazole] | 126 | 80 |
| Cn1nc(C(F)F)cc1-c1ccc(-c2cc(F)c(CO)c(S(C)(=O)=O)c2)cc1-n1nncc1-c1ccc(OC(F)(F)F)cc1 [Example 23, {4′-[3-(difluoromethyl)-1-methyl-1H-pyrazol-5-yl]-3-fluoro-5-(methylsulfonyl)-3′-(5-{4-[(trifluoromethyl)oxy]phenyl}-1H-1,2,3-triazol-1-yl)biphenyl-4-yl}methanol] | 42 | 79 |
| Cn1nc(C(F)(F)CO)cc1-c1ccc(-c2cccc(S(C)(=O)=O)c2)cc1-n1nncc1-c1ccc(Cl)cc1 [Example 24, 2-(5-(3-(5-(4-chlorophenyl)-1H-1,2,3-triazol-1-yl)-3′-(methylsulfonyl)-[1,1′-biphenyl]-4-yl)-1-methyl-1H-pyrazol-3-yl)-2,2-difluoroethanol] | 1380 | 48 |
| Cn1nc(C(F)(F)CO)cc1-c1ccc(-c2cccc(S(C)(=O)=O)c2)cc1-n1nncc1-c1ccc(OC(F)(F)F)cc1 [Example 25, 2,2-difluoro-2-(1-methyl-5-(3′-(methylsulfonyl)-3-(5-(4-(trifluoromethoxy)phenyl)-1H-1,2,3-triazol-1-yl)-[1,1′-biphenyl]-4-yl)-1H-pyrazol-3-yl)ethanol] | 1020 | 78 |
| Cn1nc(C(F)(F)CO)cc1-c1ccc(-c2cc(F)c(CO)c(S(C)(=O)=O)c2)cc1-n1nncc1-c1ccc(OC(F)(F)F)cc1 [Example 26, 2,2-difluoro-2-(5-(3′-fluoro-4′-(hydroxymethyl)-5′-(methylsulfonyl)-3-(5-(4-(trifluoromethoxy)phenyl)-1H-1,2,3-triazol-1-yl)-[1,1′-biphenyl]-4-yl)-1-methyl-1H-pyrazol-3-yl)ethanol] | 903 | 81 |
